For this data set the following is noted: Crystal; DTA.

Molecules are shown by their SMILES. ± gives the expanded uncertainty stated by the source.

On to `[Sn]` [tin], for which the Normal melting temperature stood at 231.90 ± 2 °C.

Source of the values: the NIST ThermoML archive (doi:10.1016/j.tca.2017.05.009).
